# Results: patent US20260217708A1, “FUSED BENZAZEPINE DERIVATIVES FOR USE IN THE TREATMENT OF CANCER AND EPILEPSY” (UCB BIOPHARMA SRL, priority 2023, published 2026)
# Experiments:
# system Xc^− [1] = target: T1, system Xc^− (Homo sapiens, UniProt Q9UPY5); test: [^14C]L-Cystine uptake assay; assay type: cell-based; parameters: endogenous in cells; host or cells: H4 cells; conditions: H4 cells, sodium-free HEPES buffer, 0.5 μM L-[14C]Cystine and 4.5 μM L-Cystine, 1 hour at 37° C.; read-out: pIC50 [^14C] L-Cystine uptake assay (converted)
# T1 sequence (Q9UPY5 1-501): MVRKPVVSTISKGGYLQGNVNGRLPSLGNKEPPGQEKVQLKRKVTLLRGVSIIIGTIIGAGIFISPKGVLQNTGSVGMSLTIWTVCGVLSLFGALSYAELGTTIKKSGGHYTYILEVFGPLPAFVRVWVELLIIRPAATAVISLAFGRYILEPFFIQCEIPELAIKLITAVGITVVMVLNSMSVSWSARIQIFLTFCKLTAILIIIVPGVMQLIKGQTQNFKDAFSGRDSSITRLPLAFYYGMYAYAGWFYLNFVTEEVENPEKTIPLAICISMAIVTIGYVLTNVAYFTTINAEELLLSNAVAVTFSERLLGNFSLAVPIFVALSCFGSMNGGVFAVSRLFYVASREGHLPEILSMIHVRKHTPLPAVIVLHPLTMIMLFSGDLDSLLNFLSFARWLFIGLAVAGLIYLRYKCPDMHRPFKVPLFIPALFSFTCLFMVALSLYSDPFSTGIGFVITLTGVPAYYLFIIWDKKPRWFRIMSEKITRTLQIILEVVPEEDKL
# T1 sequence (P08195 1-529 partner): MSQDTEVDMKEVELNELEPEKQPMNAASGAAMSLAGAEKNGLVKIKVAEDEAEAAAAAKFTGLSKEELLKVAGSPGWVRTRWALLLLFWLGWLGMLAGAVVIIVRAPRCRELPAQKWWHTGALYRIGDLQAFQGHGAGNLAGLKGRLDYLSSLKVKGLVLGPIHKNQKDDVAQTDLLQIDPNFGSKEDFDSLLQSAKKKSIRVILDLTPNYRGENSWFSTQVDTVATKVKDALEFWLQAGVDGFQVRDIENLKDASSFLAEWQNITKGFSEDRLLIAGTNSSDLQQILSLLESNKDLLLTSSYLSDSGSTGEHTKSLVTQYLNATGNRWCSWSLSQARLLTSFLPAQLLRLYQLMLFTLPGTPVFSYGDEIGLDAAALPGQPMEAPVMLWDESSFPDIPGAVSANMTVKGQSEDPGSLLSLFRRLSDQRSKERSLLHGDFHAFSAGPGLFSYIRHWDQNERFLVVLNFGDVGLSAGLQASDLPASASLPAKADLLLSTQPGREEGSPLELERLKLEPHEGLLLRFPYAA
# Summary of the method: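 Compound effect is given as pIC50, taken between controls of 1% DMSO and 50 μM Erastin. Human H4 cells were pretreated 15 min with compound in sodium-free buffer, then took up 0.5 μM [14C]cystine with 4.5 μM cold cystine for 1 hour at 37° C, read by scintillation proximity counting.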
# system Xc^− [2] = target: T1, system Xc^−; test: Cystine-induced glutamate release assay; assay type: cell-based; parameters: endogenous in cells; host or cells: H4 cells; conditions: H4 cells, sodium-free HEPES buffer, 50 μM L-Cystine, 2 hours, Amplex Red glutamate readout; read-out: pIC50 Cystine-induced glutamate release assay (converted)
# Summary of the method: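 IC50 (reported as pIC50) normalized to DMSO 1% and Erastin 50 μM controls, from Amplex Red fluorescence of glutamate exported into supernatant. H4 cells were washed into sodium-free buffer to exclude EAAT transport, then given compound with 50 μM L-cystine for 2 h in the incubator.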
IC50 (system Xc^− [1]) [µM],IC50 (system Xc^− [2]) [µM],Structure (SMILES)
0.1 to 0.501,0.1 to 0.501,"Cc1cc2c(cn1)-c1cnccc1CC(=O)N2CC(=O)Nc1ccc(C(F)(F)F)cc1 [#6, 2-(5-methyl-9-oxo-4,8,14-triazatricyclo[9.4.0.0^2,7]pentadeca-1(11),2(7),3,5,12,14-hexaen-8-yl)-N-[4-(trifluoromethyl)phenyl]acetamide]"
0.0398 to 0.1,0.1 to 0.501,"O=C(CN1C(=O)Cc2cccnc2-c2cnc(Cl)cc21)Nc1ccc(C(F)(F)F)cc1 [#7, 2-(13-chloro-9-oxo-3,10,14-triazatricyclo[9.4.0.0^2,7]pentadeca-1(11),2(7),3,5,12,14-hexaen-10-yl)-N-[4-(trifluoromethyl)phenyl]acetamide]"
0.1 to 0.501,0.1 to 0.501,"Cc1cc2c(cc1C)N(CC(=O)Nc1ccc(C(F)(F)F)cc1)C(=O)Cc1ccc(Cl)nc1-2 [#10, 2-(2-chloro-9,10-dimethyl-6-oxo-5H-pyrido[3,2-d][1]benzazepin-7-yl)-N-[4-(trifluoromethyl)phenyl]acetamide]"
0.1 to 0.501,0.1 to 0.501,"O=C(CN1C(=O)Cc2ccncc2-c2cnc(Cl)cc21)Nc1ccc(C(F)(F)F)cc1 [#11, 2-(5-chloro-9-oxo-4,8,14-triazatricyclo[9.4.0.0^2,7]pentadeca-1(11),2(7),3,5,12,14-hexaen-8-yl)-N-[4-(trifluoromethyl)phenyl]acetamide]"
0.1 to 0.501,0.1 to 0.501,"Cc1cc2c(cn1)-c1ncccc1CC(=O)N2CC(=O)Nc1ccc(C(F)(F)F)cc1 [#12, 2-(13-methyl-9-oxo-3,10,14-triazatricyclo[9.4.0.0^2,7]pentadeca-1(11),2(7),3,5,12,14-hexaen-10-yl)-N-[4-(trifluoromethyl)phenyl]acetamide]"
0.0398 to 0.1,0.1 to 0.501,"O=C(CN1C(=O)Cc2ccccc2-c2cnc(Cl)cc21)Nc1ccc(C(F)(F)F)cc1 [#13, 2-(3-chloro-6-oxo-7H-pyrido[4,3-d][3]benzazepin-5-yl)-N-[4-(trifluoromethyl)phenyl]acetamide]"
< 0.0158,0.1 to 0.501,"Cc1cc2c(cn1)-c1ccccc1CC(=O)N2CC(=O)Nc1ccc(C(F)(F)F)cc1 [#14, 2-(3-methyl-6-oxo-7H-pyrido[4,3-d][3]benzazepin-5-yl)-N-[4-(trifluoromethyl)-phenyl]acetamide]"
0.1 to 0.501,0.1 to 0.501,"O=C(CN1C(=O)Cc2ccccc2-c2cnccc21)Nc1ccc(C(F)(F)F)cc1 [#17, 2-(6-oxo-7H-pyrido [4,3-d][3]benzazepin-5-yl)-N-[4-(trifluoro-methyl)phenyl] acetamide]"
0.1 to 0.501,0.1 to 0.501,"O=C(CN1C(=O)Cc2ncccc2-c2cnc(Cl)cc21)Nc1ccc(C(F)(F)F)cc1 [#25, 2-(5-chloro-9-oxo-4,8,12-triazatricyclo[9.4.0.0^2,7]pentadeca-1(11),2(7),3,5,12,14-hexaen-8-yl)-N-[4-(trifluoromethyl)phenyl]acetamide]"
0.0398 to 0.1,0.1 to 0.501,"O=C(CN1C(=O)Cc2sccc2-c2cnc(Cl)cc21)Nc1ccc(C(F)(F)F)cc1 [#26, 2-(12-chloro-8-oxo-5-thia-9,13-diazatricyclo[8.4.0.0^2,6]tetradeca-1(10),2(6),3,11,13-pentaen-9-yl)-N-[4-(trifluoromethyl)phenyl]acetamide]"
0.1 to 0.501,0.1 to 0.501,"Cc1cc2c(cn1)N(CC(=O)Nc1ccc(C(F)(F)F)cc1)C(=O)Cc1ccccc1-2 [#29, 2-(2-methyl-6-oxo-7H-pyrido[3,4-d] [3]benzazepin-5-yl)-N-[4-(trifluoro-methyl)phenyl] acetamide]"
< 0.0158,0.1 to 0.501,"Cc1cc2c(cn1)-c1cc(Cl)ccc1CC(=O)N2CC(=O)Nc1ccc(C(F)(F)F)cc1 [#30, 2-(10-chloro-3-methyl-6-oxo-7H-pyrido[4,3-d][3]benzazepin-5-yl)-N-[4-(trifluoro-methyl)phenyl] acetamide]"
0.0158 to 0.0398,0.1 to 0.501,"Cc1cc2c(cn1)-c1cccc(Cl)c1CC(=O)N2CC(=O)Nc1ccc(C(F)(F)F)cc1 [#31, 2-(8-chloro-3-meth-yl-6-oxo-7H-pyrido [4,3-d][3]benzaze-pin-5-yl)-N-[4-(trifluoromethyl)-phenyl]acetamide]"

# The remaining lines, values behind:
Structure (SMILES),IC50 (system Xc^− [1]) [µM],IC50 (system Xc^− [2]) [µM]
"Cc1cc2c(cc1C)-n1ccnc1CC(=O)N2CC(=O)Nc1ccc(C(F)(F)F)cc1 [#8, 2-(8,9-dimethyl-5-oxo-4H-imidazo[1,2-a][1,5]benzodiazepin-6-yl)-N-[4-(trifluoromethyl)phenyl]acetamide]",0.0398 to 0.1,0.1 to 0.501
"Cc1cc2c(cc1C)N(CC(=O)Nc1ccc(C(F)(F)F)cc1)C(=O)Cc1cncnc1-2 [#9, 2-(9,10-dimethyl-6-oxo-5H-pyrimido[5,4-d][1]benzazepin-7-yl)-N-[4-(trifluoromethyl)phenyl]acetamide]",0.0398 to 0.1,0.1 to 0.501
"Cc1cc2c(nc1C)-c1ccccc1CC(=O)N2CC(=O)Nc1ccc(C(F)(F)F)cc1 [#15, 2-(2,3-dimethyl-6-oxo-7H-pyrido[3,2-d][3]benzazepin-5-yl)-N-[4-(trifluoro-methyl)phenyl] acetamide]",0.0158 to 0.0398,0.1 to 0.501
"O=C(CN1C(=O)Cc2ccccc2-c2ncc(F)cc21)Nc1ccc(C(F)(F)F)cc1 [#16, 2-(3-fluoro-6-oxo-7H-pyrido[3,2-d] [3]benzazepin-5-yl)-N-[4-(trifluoro-methyl)phenyl] acetamide]",0.1 to 0.501,0.1 to 0.501
"Cc1ccc(NC(=O)CN2C(=O)Cc3cccnc3-c3cnc(Cl)cc32)cc1Cl [#18, N-(3-chloro-4-methyl-phenyl)-2-(13-chloro-9-oxo-3,10,14-triazatricyclo[9.4.0.0^2,7]pentadeca-1(11),2(7),3,5,12,14-hexaen-10-yl)acetamide]",0.1 to 0.501,0.1 to 0.501
"O=C(CN1C(=O)Cc2cccnc2-c2cnc(Cl)cc21)Nc1ccc(Br)c(Cl)c1 [#19, N-(4-bromo-3-chloro-phenyl)-2-(13-chloro-9-oxo-3,10,14-triazatricyclo[9.4.0.0^2,7]pentadeca-1(11),2(7),3,5,12,14-hexaen-10-yl)acetamide]",0.1 to 0.501,0.1 to 0.501
"Cc1cc2c(cn1)-c1cc(C)c(C)cc1N(CC(=O)Nc1ccc(C(F)(F)F)cc1)C(=O)C2 [#21, N-[4-(trifluoromethyl)phenyl]-2-(3,9,10-trimethyl-6-oxo-5H-pyrido[4,3-d][1]benzazepin-7-yl)acetamide]",0.0398 to 0.1,0.1 to 0.501
"Cc1cc2c(cc1C)N(CC(=O)Nc1ccc(C(F)(F)F)cc1)C(=O)Cc1cccnc1-2 [#22, 2-(9,10-dimethyl-6-oxo-5H-pyrido[3,2-d][1]benzazepin-7-yl)-N-[4-(trifluoromethyl)phenyl]acetamide]",0.0398 to 0.1,0.1 to 0.501
"Cc1cc2c(cc1C)N(CC(=O)Nc1ccc(C(F)(F)F)cc1)C(=O)Cc1ncccc1-2 [#23, 2-(9,10-dimethyl-6-oxo-5H-pyrido[2,3-d][1]benzazepin-7-yl)-N-[4-(trifluoromethyl)phenyl]acetamide]",0.0158 to 0.0398,0.0398 to 0.1
"Cc1cc2c(cc1C)N(CC(=O)Nc1ccc(C(F)(F)F)cc1)C(=O)Cc1ccncc1-2 [#24, 2-(9,10-dimethyl-6-oxo-5H-pyrido[4,3-d][1]benzazepin-7-yl)-N-[4-(trifluoromethyl)phenyl]acetamide]",0.0158 to 0.0398,0.1 to 0.501
"Cc1cc2c(c(C)n1)-c1ccccc1CC(=O)N2CC(=O)Nc1ccc(C(F)(F)F)cc1 [#27, 2-(1,3-dimethyl-6-oxo-7H-pyrido[4,3-d][3]benzazepin-5-yl)-N-[4-(trifluoromethyl)phenyl]acetamide]",< 0.0158,0.0158 to 0.0398
"Cc1nccc2c1-c1ccccc1CC(=O)N2CC(=O)Nc1ccc(C(F)(F)F)cc1 [#28, 2-(1-methyl-6-oxo-7H-pyrido[4,3-d] [3]benzazepin-5-yl)-N-[4-(trifluoro-methyl)phenyl] acetamide]",0.0398 to 0.1,0.0398 to 0.1
